For data set [1], the system named is 5-FU-treated mice. The conditions noted are these: mouse, in vivo. The procedure:
5-FU was intraperitoneally injected in mice at 150 mg/kg. The counts of white blood cells (WBC), red blood cells (RBC), platelets (PLT), hemoglobin (HGB) and hematocrit (HCT) were monitored daily for two weeks. As expected, the treatment of mice with 5-FU induced severe bone marrow hypoplasia and pancytopenia. The numbers of WBC and PLT dropped from 8.4±1.5×10^6/ml and 678.4±82×10^6/ml before 5-FU administration to 2.52±0.5×10^6/ml and 388±50×10^6/ml, respectively, 7 days later (FIGS. 1A, B). The total number of mononuclear cells in the bone marrow decreased from 15.3±2.2×10^6/femur before to 5.00±0.65×10^6/femur 7 days after 5-FU administration (FIG. 2A). All parameters were recovered to normal in 14 days after 5-FU administration. To examine the effect of HA on 5-FU-perturbed hematopoiesis, 5-FU-treated (day 0) mice were administered 100 μg/mouse HA as a 0.05% solution in PBS (HA from Sigma-Aldrich, Catalog No.: H1751) on days 4, 6, 10, and 13. A control group of animals was treated with a 200-μl injection of PBS. The peripheral blood from HA- and PBS-treated mice was collected daily and examined for numbers of WBC, RBC, PLT, HGB, and HCT. […] The number of PLT in HA-treated mice was increased starting from day 5 and was elevated by a factor of 1.7 on day 8 (FIG. 1B). […]

For data set [2], the system named is 5-FU-treated mice. Kind of data set: Bone marrow hematopoiesis in 5-FU-treated mice (cell counts, morphological analysis). The format is in vivo. As to conditions: 7 days after 5-FU 150 mg/kg i.p.; 15.3±2.2 before. The protocol:
Because mature blood cells are a product of proliferation and differentiation of hematopoietic progenitors, we next examined the effect of HA on bone marrow hematopoiesis in 5-FU-treated mice. 5-FU-treated mice (day 0) were administered PBS or 100 μg/mouse HA (as a 0.05%solution in PBS) on day 4, 6, 10, and 13. Bone marrow cells were harvested on days 7, 14, 21, and 28. On day 7 the total number of bone marrow cells in the HA-treated mice was 3.5-fold higher in comparison to the PBS-treated mice (FIG. 2A). To evaluate the effect of HA on different hematopoietic lineages, a morphological analysis of the bone marrow cells was performed as followed. […]
To examine this assumption, bone marrow cells were cultured in methylcellulose to evaluate the number of proliferating lineage-committed progenitors. […] Colonies containing more then 20 cells were counted under the inverted microscope after 7 days of culture. […] Colonies containing at least 500 cells were counted after 14 days. […] We next investigated whether HA stimulation benefited the pool of committed progenitors at the cost of damaging more primitive progenitors that were measured by using a long-term culture-initiating cells (LTC-IC) assay. The number of LTC-IC in the bone marrow of mice treated with HA was evaluated using a limited dilution assay. […]

Take `O=c1[nH]cc(F)c(=O)[nH]1` [5-FU, 5-fluorouracil]: the “time until all parameters recovered to normal after 5-FU administration” value in the data set with 5-FU-treated mice [1] is 14 days. In addition, in the data set on 5-FU-treated mice [2], the “total number of mononuclear cells in the bone marrow” value is 5.00±0.65 ×10^6/femur.

The record behind these values is patent US20060069064A1, “Methods for facilitating recovery of functions of endogenous or implanted or transplanted stem cells using hyaluronic acid” (priority 2003, published 2006).
